This passage reports IC50 results from patent publication US10072003B2, “Tetrahydronaphthyridine derivatives as mGluR2-negative allosteric modulators, compositions, and their use” (Merck Sharp & Dohme Corp., priority 2014, dated 2018).

For the assay, the target named is recombinant human mGluR2 (Homo sapiens (Human), UniProt Q14416). In words: FLIPR Ca2+ mobilization antagonist assay in CHO dhfr- cells expressing human mGluR2 and Gα16. The following applies: antagonist response after addition of 2,500 nM glutamate, Fluo-4 AM, FLIPR384. It counts as cell-based. The method, boiled down:
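CHO dhfr- cells stably co-expressing human mGluR2 and Gα16, Fluo-4 AM loaded, preincubated with compound, then challenged with 2,500 nM glutamate; Ca2+ response read by FLIPR. Maximum calcium response vs concentration fitted to four-parameter logistic for IC50.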
In general terms: A change in cytosolic calcium serves as a functional read-out for many receptors and channels.

Sequence of recombinant human mGluR2 (Q14416 19-872): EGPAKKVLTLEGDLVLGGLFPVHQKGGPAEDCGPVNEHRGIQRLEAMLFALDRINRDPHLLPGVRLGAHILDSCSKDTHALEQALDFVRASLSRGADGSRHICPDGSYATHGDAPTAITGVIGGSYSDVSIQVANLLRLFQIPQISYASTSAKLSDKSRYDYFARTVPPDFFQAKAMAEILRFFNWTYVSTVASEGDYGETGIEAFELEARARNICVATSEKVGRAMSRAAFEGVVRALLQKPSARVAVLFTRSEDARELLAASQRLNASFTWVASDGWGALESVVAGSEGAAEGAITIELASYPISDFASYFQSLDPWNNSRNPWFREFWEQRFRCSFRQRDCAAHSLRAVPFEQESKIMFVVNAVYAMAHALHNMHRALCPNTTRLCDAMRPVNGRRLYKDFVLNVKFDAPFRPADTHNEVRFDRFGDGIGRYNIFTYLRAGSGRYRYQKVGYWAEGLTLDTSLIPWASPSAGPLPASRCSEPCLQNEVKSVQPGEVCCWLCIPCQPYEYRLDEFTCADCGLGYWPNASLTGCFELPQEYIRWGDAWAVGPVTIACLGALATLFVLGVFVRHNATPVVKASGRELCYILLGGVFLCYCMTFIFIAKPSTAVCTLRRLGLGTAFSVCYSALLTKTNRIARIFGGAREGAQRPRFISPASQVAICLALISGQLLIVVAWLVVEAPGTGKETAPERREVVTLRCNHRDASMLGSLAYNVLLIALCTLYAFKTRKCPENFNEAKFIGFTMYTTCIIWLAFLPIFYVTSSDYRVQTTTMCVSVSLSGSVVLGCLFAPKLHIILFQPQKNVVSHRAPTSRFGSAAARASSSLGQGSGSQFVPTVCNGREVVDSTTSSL

`COc1cc(C(N2CCc3c(C4=CCC(C)CC4)cc(C(N)=O)nc3C2)C(F)(F)F)ccn1` (racemic) [Example 4-3A, 4-((S) and (R)-4-methylcyclohex-1-en-1-yl)-7-((S) and (R)-2,2,2-trifluoro-1-(2-methoxypyridin-4-yl)ethyl)-5,6,7,8-tetrahydro-1,7-naphthyridine-2-carboxamide]: the IC50 (as a rule, the midpoint of a concentration-inhibition curve) amounted to 51.2 nM.

Consider `NC(=O)c1cc(-c2ccc(F)cc2)c2c(n1)CN(C[C@@H]1CCN[C@H](C(F)(F)F)C1)CC2` [Example 1-1B, 4-(4-fluorophenyl)-7-(((2S,4R)-2-(trifluoromethyl)piperidin-4-yl)methyl)-5,6,7,8-tetrahydro-1,7-naphthyridine-2-carboxamide], for which the IC50 came to 98.2 nM.

Turning to `CC1(C)CCC(CN2CCc3c(-c4ccc(Cl)cc4F)cc(C(N)=O)nc3C2)CO1` (single isomer, unassigned) [Example 1-21, (S) or (R)-4-(4-chloro-2-fluorophenyl)-7-[(6,6-dimethyltetrahydro-2H-pyran-3-yl)methyl]-5,6,7,8-tetrahydro-1,7-naphthyridine-2-carboxamide], the IC50 worked out at 9.3 nM.

For the molecule `Cn1cc(CN2CCc3c(-c4ccc(Cl)cc4F)cc(C(N)=O)nc3C2)cn1` [Example 10-4, 4-(4-chloro-2-fluorophenyl)-7-[(1-methyl-1H-pyrazol-4-yl)methyl]-5,6,7,8-tetrahydro-1,7-naphthyridine-2-carboxamide], the IC50 came out at 14.6 nM.

As for `COc1cc(CN2CCc3c(N4CCC(F)(F)CC4)cc(C(N)=O)nc3C2)ccn1` [Example 5-3, 4-(4,4-difluoropiperidin-1-yl)-7-[(2-methoxypyridin-4-yl)methyl]-5,6,7,8-tetrahydro-1,7-naphthyridine-2-carboxamide], the IC50 amounted to 41 nM.

In the case of `COc1ncc(CN2CCc3c(-c4ccc(Cl)cc4F)cc(C(N)=O)nc3C2)cn1` [Example 10-2, 4-(4-chloro-2-fluorophenyl)-7-[(2-methoxypyrimidin-5-yl)methyl]-5,6,7,8-tetrahydro-1,7-naphthyridine-2-carboxamide], the IC50 came out at 7.4 nM.

For `NC(=O)c1cc(-c2cnn(C(F)F)c2)c2c(n1)CN(Cc1ccnc(OC(F)F)c1)CC2` [Example 2-12, 7-{[2-(difluoromethoxy)pyridin-4-yl]methyl}-4-[1-(difluoromethyl)-1H-pyrazol-4-yl]-5,6,7,8-tetrahydro-1,7-naphthyridine-2-carboxamide], the IC50 amounted to 8.5 nM.

As to `COC1CCN(c2cc(C(N)=O)nc3c2CCN(Cc2ccnn2C(C)C)C3C)CC1` (single isomer, unassigned) [Example 1-22, (S) or (R)-4-(4-methoxypiperidin-1-yl)-8-methyl-7-{[1-(1-methylethyl)-1H-pyrazol-5-yl]methyl}-5,6,7,8-tetrahydro-1,7-naphthyridine-2-carboxamide], the half-maximal inhibitory concentration (IC50) worked out at 50.6 nM.

As for `NC(=O)c1cc(-c2cnn(C(F)F)c2)c2c(n1)CN(Cc1ccnc(C3CC3)c1)CC2` [Example 2-9, 7-[(2-cyclopropylpyridin-4-yl)methyl]-4-[1-(difluoromethyl)-1H-pyrazol-4-yl]-5,6,7,8-tetrahydro-1,7-naphthyridine-2-carboxamide], the IC50 is 10.8 nM.

For `NC(=O)c1cc(-c2ccc(F)cc2Cl)c2c(n1)CN(Cc1ccnc(OC(F)F)c1)CC2` [Example 2-11, 4-(2-chloro-4-fluorophenyl)-7-{[2-(difluoromethoxy)pyridin-4-yl]methyl}-5,6,7,8-tetrahydro-1,7-naphthyridine-2-carboxamide], the IC50 was 10.4 nM.

`CC1(C)CCC(c2cc(C(N)=O)nc3c2CCN(Cc2ccnc(C(F)(F)F)c2)C3)CC1` [Example 4-1, 4-(4,4-dimethylcyclohexyl)-7-((2-(trifluoromethyl)pyridin-4-yl)methyl)-5,6,7,8-tetrahydro-1,7-naphthyridine-2-carboxamide]: the IC50 was 117 nM.

As to `NC(=O)c1cc(-c2cnn(C(F)F)c2)c2c(n1)CN(Cc1ccnc(C(F)(F)F)c1)CC2` [Example 2-5, 4-[1-(difluoromethyl)-1H-pyrazol-4-yl]-7-{[2-(trifluoromethyl)pyridin-4-yl]methyl}-5,6,7,8-tetrahydro-1,7-naphthyridine-2-carboxamide], the IC50 was found to be 30.3 nM.

As for `COc1cc(CN2CCc3c(-c4ccc(F)cc4Cl)cc(C(N)=O)nc3C2)ccn1` [Example 13-4, 4-(2-chloro-4-fluorophenyl)-7-[(2-methoxypyridin-4-yl)methyl]-5,6,7,8-tetrahydro-1,7-naphthyridine-2-carboxamide], the IC50 was found to be 5.7 nM.

Regarding `NC(=O)c1cc(-c2cc(C3CC3)ns2)c2c(n1)CN(Cc1ccnc(C3CC3)c1)CC2` [Example 2-24, 4-(3-cyclopropylisothiazol-5-yl)-7-[(2-cyclopropylpyridin-4-yl)methyl]-5,6,7,8-tetrahydro-1,7-naphthyridine-2-carboxamide], the IC50 worked out at 18.2 nM.
